From PMC12382740, “In Vitro and In Vivo Characterization of Novel Cathelicidin-Based Peptides with Antimicrobial Activity Against Pseudomonas aeruginosa” (Antibiotics, 2025)
Read-outs that look alike come from different tables or passages of the source. Bridge positions count the residues as written; N and C are the ends. Ends that are not written are not given here. Peptide text beside a SMILES is read from it.

Key:
Type in all cases: cell-based, Pseudomonas aeruginosa
[1] = tested on: Colistin-Resistant P. aeruginosa
Description: (§1) The antimicrobial activity of the peptides was tested against a collection of P. aeruginosa, selected by their resistance or susceptibility to colistin and/or classified as MDR strains. The origin of the strains was either clinical, relevant to the current clinical situation, or commercial strains belonging to the American Type Culture Collection (ATCC, Manassas, VA, USA), which complemented the collection for comparison and control. For the initial activity screening of the 17 peptides, we tested them against P. aeruginosa ATCC strains 1211007 and 1211101. Both strains are multidrug-resistant; however, the key difference is that strain 1211007 is susceptible to colistin, whereas strain 1211101 is resistant to colistin.
(§2) Minimum Inhibitory Concentration (MIC) of the antimicrobial agents against bacterial strains was obtained through broth microdilution assays following a protocol based on the Clinical & Laboratory Standards Institute’s guidelines. Modifications regarding microplate material and broth were included when testing the peptides’ activity and are detailed below. Colistin MICs were obtained following recommendations of the joint CLSI-EUCAST Polymyxin Breakpoints Working Group using Cation Adjusted Mueller-Hinton Broth (90922, 500 g Sigma-Aldrich®, St. Louis, MO, USA), and strains Escherichia coli 13846 (mcr-1 positive) and P. aeruginosa ATCC 27853 were used as quality controls in all assays. Bacteria were cultured in Columbia Agar plates (Columbia Agar with 5% Sheep Blood 90 mm Stacker plates, Becton Dickinson, Franklin Lakes, NJ, USA) and incubated overnight at 37 °C. Polypropylene round-bottomed 96-well plates (-96-well Polypropylene Storage Microplates, 267334, Thermo Fischer Scientific, Waltham, MA, USA) were used to prevent peptide binding to plate walls. AST broth (BD Phoenix™ AST broth, 8 mL, 246003, Becton Dickinson, Franklin Lakes, NJ, USA) was used when testing the peptides’ activity. […] Three biological and technical replicates were performed per strain.

[2] = tested on: Colistin Susceptible P. aeruginosa
Description: as §1, §2

[3] = tested on: P. aeruginosa strain panel; conditions: for MIC50 / MIC90: panel of 15 P. aeruginosa strains
Description: as §1, §2

[4] = colistin-resistant P. aeruginosa
[5] = colistin-resistant P. aeruginosa, value in brackets
[6] = colistin-susceptible P. aeruginosa
[7] = colistin-susceptible P. aeruginosa, value in brackets

Compound | MIC [1, 5] | MIC [2, 6] | MIC [2, 7] | MIC ([1]; Colistin-Resistant) | MIC ([2]; Colistin Susceptible) | also measured
CC[C@H](C)[C@@H]1NC(=O)[C@@H](NC(=O)[C@@H](NC(=O)[C@@H]2CCCN2C(=O)[C@H](Cc2ccccc2)NC(=O)[C@H](Cc2c[nH]cn2)NC(=O)[C@@H](NC(=O)[C@@H](N)CC(=O)O)[C@@H](C)O)[C@@H](C)CC)CSSC[C@@H](C(=O)N[C@@H](CCCCN)C(=O)N[C@H](C(=O)O)[C@@H](C)O)NC(=O)[C@@H]2CSSC[C@@H]3NC(=O)[C@@H]4CSSC[C@H](NC(=O)[C@H](Cc5ccccc5)NC1=O)C(=O)N[C@@H](CSSC[C@H](NC(=O)[C@H](CCCCN)NC(=O)[C@H](CO)NC(=O)[C@H](CCCNC(=N)N)NC(=O)[C@H](Cc1c[nH]cn1)NC3=O)C(=O)NCC(=O)N[C@@H](CCSC)C(=O)N2)C(=O)NCC(=O)N4 [Hepcidin] | > 92 µM | > 256 µg/mL | > 92 µM | – | – | MIC [1, 4]: > 256 µg/mL
CC[C@H](C)[C@@H]1NC(=O)[C@@H]2CSSC[C@@H]3NC(=O)[C@H](Cc4ccccc4)NC(=O)[C@H](C)NC(=O)[C@H](Cc4c[nH]c5ccccc45)NC(=O)[C@H](CC(C)C)NC(=O)[C@H](CCCNC(=N)N)NC(=O)CNC(=O)[C@H](CCC(N)=O)NC(=O)[C@H](Cc4ccc(O)cc4)NC(=O)[C@H]([C@@H](C)CC)NC(=O)[C@H](CSSC[C@H](NC(=O)[C@H](Cc4ccc(O)cc4)NC(=O)[C@@H](N)CSSC[C@@H](C(=O)O)NC3=O)C(=O)N[C@@H](CCCNC(=N)N)C(=O)N[C@@H]([C@@H](C)CC)C(=O)N3CCC[C@H]3C(=O)N[C@@H](C)C(=O)N2)NC(=O)[C@H]([C@@H](C)O)NC(=O)CNC(=O)[C@H](Cc2ccc(O)cc2)NC(=O)[C@H](CCCNC(=N)N)NC(=O)[C@H](CCCNC(=N)N)NC(=O)[C@H](CCC(=O)O)NC(=O)CNC(=O)[C@H](C)NC1=O [α-defensin 2] (H-CYCRIPACIAGERRYGTCIYQGRLWAFCC-OH; disulfide 1-29, 3-18, 8-28; N-terminus and C-terminus assumed) | > 15 µM | – | > 15 µM | > 50 µg/mL | > 50 µg/mL | –
CC[C@H](C)[C@@H]1NC(=O)[C@H](CCC(=O)O)NC(=O)[C@@H]2CSSC[C@@H]3NC(=O)[C@H](Cc4ccc(O)cc4)NC(=O)[C@@H](NC(=O)[C@@H](NC(=O)[C@H](C)N)[C@@H](C)O)CSSC[C@@H](C(=O)N[C@@H](CCCNC(=N)N)C(=O)O)NC(=O)[C@H](CSSC[C@H](NC(=O)[C@H](CCCNC(=N)N)NC(=O)CNC(=O)[C@H]([C@@H](C)O)NC(=O)[C@H](CCCNC(=N)N)NC3=O)C(=O)N[C@@H](C)C(=O)N[C@@H]([C@@H](C)O)C(=O)N[C@@H](CCCNC(=N)N)C(=O)N[C@@H](CCC(=O)O)C(=O)N[C@@H](CO)C(=O)N[C@@H](CC(C)C)C(=O)N[C@@H](CO)C(=O)NCC(=O)N[C@@H](C(C)C)C(=O)N2)NC(=O)[C@H](CC(C)C)NC(=O)[C@H](CCCNC(=N)N)NC(=O)[C@H](Cc2ccc(O)cc2)NC(=O)[C@H](CC(C)C)NC(=O)[C@H](CCCNC(=N)N)NC(=O)CNC(=O)[C@H](CO)NC1=O [α-defensin 5] (H-ATCYCRTGRCATRESLSGVCEISGRLYRLCCR-OH; disulfide 3-31, 5-20, 10-30; N-terminus and C-terminus assumed) | – | 50 µg/mL | 14 µM | – | – | –
CC[C@H](C)[C@@H]1NC(=O)CNC(=O)[C@H](CCSC)NC(=O)[C@H](C(C)C)NC(=O)[C@H]([C@@H](C)O)NC(=O)[C@@H]2CSSC[C@@H]3NC(=O)[C@H](Cc4c[nH]cn4)NC(=O)[C@@H](NC(=O)[C@@H](NC(=O)[C@H](Cc4ccccc4)NC(=O)[C@H](C)N)[C@@H](C)O)CSSC[C@@H](C(=O)N[C@@H](CC(C)C)C(=O)O)NC(=O)[C@H](CSSC[C@H](NC(=O)[C@H](CO)NC(=O)[C@H](CCCNC(=N)N)NC(=O)[C@H](CCCNC(=N)N)NC3=O)C(=O)N[C@@H](Cc3ccc(O)cc3)C(=O)N[C@@H](CO)C(=O)N[C@@H]([C@@H](C)O)C(=O)N[C@@H](CCC(=O)O)C(=O)N[C@@H](Cc3ccc(O)cc3)C(=O)N[C@@H](CO)C(=O)N[C@@H](Cc3ccc(O)cc3)C(=O)NCC(=O)N[C@@H]([C@@H](C)O)C(=O)N2)NC(=O)[C@H](Cc2ccccc2)NC(=O)[C@H](CCCNC(=N)N)NC(=O)[C@H](Cc2c[nH]cn2)NC(=O)[C@H](CC(N)=O)NC1=O [α-defensin 6] | > 13 µM | – | > 13 µM | > 50 µg/mL | > 50 µg/mL | –
AKKVFKRLEKLFSKIQNDK [HP 2-20] | > 110 µM | > 256 µg/mL | > 110 µM | – | – | MIC [1, 4]: > 256 µg/mL
Colistin [reference compound] | 28 µM | 0.75 µg/mL | 0.7 µM | – | – | MIC50 [3]: ≤ 0.125 µg/mL; MIC90 [3]: 64 µg/mL; MIC50 ([3]; value in brackets): ≤ 0.11 µM; MIC90 ([3]; value in brackets): 55 µM; MIC ([3]; strain 12-1110 S1): ≤0.125 µg/mL; MIC ([3]; strain 15-0307 S4): ≤0.125 µg/mL; MIC ([3]; strain 15-0803 S3): ≤0.125 µg/mL; MIC ([3]; strain 21-0308 R2): 64 µg/mL; MIC ([3]; strain 21-0410 S5): ≤0.125 µg/mL; MIC ([3]; strain 21-0505 S2): ≤0.125 µg/mL; MIC ([3]; strain 36a): 0.25 µg/mL; MIC ([3]; strain 38a): ≤0.125 µg/mL; MIC ([3]; strain 27853): ≤0.125 µg/mL; MIC ([3]; strain 16359347-2 R3): 64 µg/mL; MIC ([3]; strain C1): 0.25 µg/mL; MIC ([3]; strain C2): 0.5 µg/mL; MIC ([3]; strain C3): ≤0.125 µg/mL; MIC ([3]; strain C4): 0.25 µg/mL; MIC ([3]; strain C5): ≤0.125 µg/mL; MIC [1, 4]: 32 µg/mL
GIGDPVTCLKSGAICHPVFCPRRYKQIGTCGLPGTKCCKKP (disulfide 8-37, 15-30, 20-38) [β-defensin 2] | > 12 µM | > 50 µg/mL | > 12 µM | – | – | MIC [1, 4]: > 50 µg/mL
GIINTLQKYYCRVRGGRCAVLSCLPKEEQIGKCSTRGRKCCRRKK (disulfide 11-40, 18-33, 23-41) [β-defensin 3] | > 10 µM | – | > 10 µM | > 50 µg/mL | > 50 µg/mL | –
GLLRKGGEKIGEKLKKIGQKIKNFFQKLVPQPEQ [CRAMP] | 8 µM | – | – | 32 µg/mL | – | –
GLVRKGGEKFGEKLRKIGQKIKEFFQKLALEIEQ [r-CRAMP] | 16 µM | – | > 65 µM | 64 µg/mL | > 256 µg/mL | –
ISRLAGLLRKGGEKIGEKLKKIGQKIKNFFQKLVPQPEQ [CRAMP 1-39] | 7 µM | – | – | 32 µg/mL | – | –
KYYGNGVSCNKKGCSVDWGKAIGIIGNNSAANLATGGAAGWSK (disulfide 9-14) [Mundticin] | > 60 µM | – | > 60 µM | > 256 µg/mL | > 256 µg/mL | –
RRRPRPPYLPRPRPPPFFPPRLPPRIPPGFPPRFPPRFP-NH2 (C-terminus assumed) [PR39] | 7 µM | – | 14 µM | – | – | –
SSLLEKGLDGAKKAVGGLGKLGKDAVEDLESVGKGAVHDVKDVLDSVL [Dermicidin] | > 53 µM | – | > 53 µM | > 256 µg/mL | > 256 µg/mL | –
